Assay results taken from PubChem BioAssay AID2060490 (Molecular Pharmacology Branch, DTP, NCI, 2025).

System: 885512-296-R-J2-PDC complex spheroid viability
Test: Anticancer human tumor 885512-296-R-J2-PDC patient-derived breast carcinoma cell line growth inhibition [GQUAD]
Settings: for IC50: curve of first compound; for viability, T/C: stronger effect = lower value
Summary of the method: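 Tumor cells were grown as complex spheroids with HUVEC endothelial cells and mesenchymal stem cells as stroma. G-quadruplex stabilizers were combined with targeted agents over half-log dilutions from near the clinical Cmax, or from 10 microM.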
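Also: spheroids exposed to the compounds for one week.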
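For viability, T/C in this document: percent of tumor spheroid viability relative to DMSO vehicle control wells.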

With `CC1COCCN1c1cc(C2(S(C)(=N)=O)CC2)nc(-c2ccnc3[nH]ccc23)n1` (configuration not stated) + CN(C)c1ccc(Nc2c3ccc(NC(=O)CCN4CCCC4)cc3nc3cc(NC(=O)CCN4CCCC4)ccc23)cc1 as the molecule, how does the IC50 (second compound 0.0316 µM) read?
The IC50 was 800 nM.

And the IC50 (second compound 0.1 µM)?
The IC50 was 795 nM.

What about the IC50 (second compound 0.316 µM) of the same molecule?
Its IC50 is 765 nM.

What about the IC50 (second compound 1 µM) of the same molecule?
Its IC50 is 729 nM.

And the IC50 (second compound 3.16 µM)?
The IC50 was 744 nM.

What about the IC50 (second compound 10 µM) of the same molecule?
Its IC50 is under 31.6 nM.

What about the viability, T/C (second compound 0.0316 µM, first compound 0.0316 µM) of the same molecule?
The viability, T/C was 102%.

And the viability, T/C (second compound 0.0316 µM, first compound 0.1 µM)?
Its viability, T/C is 90.4%.

What about the viability, T/C (second compound 0.0316 µM, first compound 0.316 µM) of the same molecule?
Its viability, T/C is 93%.

And the viability, T/C (second compound 0.0316 µM, first compound 1 µM)?
The viability, T/C was 39.7%.

What about the viability, T/C (second compound 0.0316 µM, first compound 3.16 µM) of the same molecule?
Its viability, T/C is 5.75%.

And the viability, T/C (second compound 0.0316 µM, first compound 10 µM)?
The viability, T/C was 3.04%.

What about the viability, T/C (second compound 0.1 µM, first compound 0.0316 µM) of the same molecule?
The viability, T/C was 104%.

What about the viability, T/C (second compound 0.1 µM, first compound 0.1 µM) of the same molecule?
The viability, T/C was 92.5%.

What about the viability, T/C (second compound 0.1 µM, first compound 0.316 µM) of the same molecule?
Its viability, T/C is 90.7%.

What about the viability, T/C (second compound 0.1 µM, first compound 1 µM) of the same molecule?
The viability, T/C was 39.9%.

What about the viability, T/C (second compound 0.1 µM, first compound 3.16 µM) of the same molecule?
Its viability, T/C is 6.39%.

What about the viability, T/C (second compound 0.1 µM, first compound 10 µM) of the same molecule?
The viability, T/C was 2.92%.

And the viability, T/C (second compound 0.316 µM, first compound 0.0316 µM)?
The viability, T/C was 110%.

What about the viability, T/C (second compound 0.316 µM, first compound 0.1 µM) of the same molecule?
The viability, T/C was 102%.

And the viability, T/C (second compound 0.316 µM, first compound 0.316 µM)?
The viability, T/C was 87.1%.

What about the viability, T/C (second compound 0.316 µM, first compound 1 µM) of the same molecule?
The viability, T/C was 39.5%.

And the viability, T/C (second compound 0.316 µM, first compound 3.16 µM)?
The viability, T/C was 6.6%.

And the viability, T/C (second compound 0.316 µM, first compound 10 µM)?
Its viability, T/C is 4.64%.

What about the viability, T/C (second compound 1 µM, first compound 0.0316 µM) of the same molecule?
Its viability, T/C is 97.3%.

What about the viability, T/C (second compound 1 µM, first compound 0.1 µM) of the same molecule?
Its viability, T/C is 90.8%.

And the viability, T/C (second compound 1 µM, first compound 0.316 µM)?
The viability, T/C was 85.1%.

And the viability, T/C (second compound 1 µM, first compound 1 µM)?
Its viability, T/C is 36.9%.

What about the viability, T/C (second compound 1 µM, first compound 3.16 µM) of the same molecule?
Its viability, T/C is 6.12%.

And the viability, T/C (second compound 1 µM, first compound 10 µM)?
The viability, T/C was 3.44%.

What about the viability, T/C (second compound 3.16 µM, first compound 0.0316 µM) of the same molecule?
Its viability, T/C is 96.7%.

What about the viability, T/C (second compound 3.16 µM, first compound 0.1 µM) of the same molecule?
The viability, T/C was 98.4%.

What about the viability, T/C (second compound 3.16 µM, first compound 0.316 µM) of the same molecule?
The viability, T/C was 100%.

And the viability, T/C (second compound 3.16 µM, first compound 1 µM)?
The viability, T/C was 33.3%.

And the viability, T/C (second compound 3.16 µM, first compound 3.16 µM)?
Its viability, T/C is 6.38%.

What about the viability, T/C (second compound 3.16 µM, first compound 10 µM) of the same molecule?
Its viability, T/C is 3.89%.

And the viability, T/C (second compound 10 µM, first compound 0.0316 µM)?
Its viability, T/C is 15.1%.

What about the viability, T/C (second compound 10 µM, first compound 0.1 µM) of the same molecule?
The viability, T/C was 20.8%.

And the viability, T/C (second compound 10 µM, first compound 0.316 µM)?
The viability, T/C was 21.7%.

What about the viability, T/C (second compound 10 µM, first compound 1 µM) of the same molecule?
The viability, T/C was 11.7%.

And the viability, T/C (second compound 10 µM, first compound 3.16 µM)?
Its viability, T/C is 7.12%.

And the viability, T/C (second compound 10 µM, first compound 10 µM)?
The viability, T/C was 4.27%.
